Measurements reported in ChEMBL document CHEMBL4342467, “Discovery of a Novel Dual-Target Inhibitor of ERK1 and ERK5 That Induces Regulated Cell Death to Overcome Compensatory Mechanism in Specific Tumor Types” (J Med Chem, 2020).

Legend:
[1] = biological target: Mitogen-activated protein kinase 3 (Homo sapiens) (UniProt P27361); experiment: Inhibition of ERK1 (unknown origin) at 1 uM by Z'-Lyte assay relative to control
[2] = biological target: Mitogen-activated protein kinase 1 (Homo sapiens) (UniProt P28482); experiment: Inhibition of ERK2 (unknown origin) at 1 uM by Z'-Lyte assay relative to control
Mitogen-activated protein kinase 1 (Homo sapiens), sequence (P28482 whole entry): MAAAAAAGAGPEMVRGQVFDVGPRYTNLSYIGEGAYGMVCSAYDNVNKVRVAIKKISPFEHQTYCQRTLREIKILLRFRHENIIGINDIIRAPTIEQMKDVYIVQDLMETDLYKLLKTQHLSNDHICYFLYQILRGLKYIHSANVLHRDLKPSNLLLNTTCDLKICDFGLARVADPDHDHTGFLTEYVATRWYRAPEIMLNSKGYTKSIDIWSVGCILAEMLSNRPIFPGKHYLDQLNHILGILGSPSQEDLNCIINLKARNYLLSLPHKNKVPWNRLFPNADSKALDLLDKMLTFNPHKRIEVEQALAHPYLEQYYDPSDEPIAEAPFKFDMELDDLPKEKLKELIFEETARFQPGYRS

[3] = biological target: Mitogen-activated protein kinase 7 (Homo sapiens) (UniProt Q13164); experiment: Inhibition of ERK5 (unknown origin) at 1 uM by Z'-Lyte assay relative to control
Mitogen-activated protein kinase 7 (Homo sapiens), sequence (Q13164 2-816 limits assumed): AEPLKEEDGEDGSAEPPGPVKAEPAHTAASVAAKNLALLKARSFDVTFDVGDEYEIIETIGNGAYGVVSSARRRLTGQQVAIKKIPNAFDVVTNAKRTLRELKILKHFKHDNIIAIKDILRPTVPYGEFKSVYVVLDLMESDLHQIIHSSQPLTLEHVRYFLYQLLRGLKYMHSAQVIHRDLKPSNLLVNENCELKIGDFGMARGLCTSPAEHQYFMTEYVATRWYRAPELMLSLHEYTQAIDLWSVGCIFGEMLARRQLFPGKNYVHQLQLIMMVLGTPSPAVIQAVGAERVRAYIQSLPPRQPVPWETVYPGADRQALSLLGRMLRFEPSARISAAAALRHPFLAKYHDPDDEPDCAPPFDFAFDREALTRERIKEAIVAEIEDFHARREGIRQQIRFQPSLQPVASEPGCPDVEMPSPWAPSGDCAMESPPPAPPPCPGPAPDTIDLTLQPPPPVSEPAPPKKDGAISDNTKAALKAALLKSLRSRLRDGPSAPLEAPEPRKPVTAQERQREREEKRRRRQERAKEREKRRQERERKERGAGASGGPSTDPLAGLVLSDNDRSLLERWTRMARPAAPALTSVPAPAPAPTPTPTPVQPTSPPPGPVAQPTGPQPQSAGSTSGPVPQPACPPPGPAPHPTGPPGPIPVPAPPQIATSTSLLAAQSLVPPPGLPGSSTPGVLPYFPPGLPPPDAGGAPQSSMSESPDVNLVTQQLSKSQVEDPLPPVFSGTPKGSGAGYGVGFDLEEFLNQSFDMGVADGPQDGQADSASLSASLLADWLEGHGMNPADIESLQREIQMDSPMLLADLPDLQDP

HL-60 = experiment: Antiproliferative activity against human HL60 cells assessed as reduction in cell viability measured after 24 hrs; type: functional, cell-based; settings: HL-60, 24 h
MKN-74 = experiment: Antiproliferative activity against human MKN74 cells assessed as reduction in cell viability measured after 24 hrs; type: functional, cell-based; settings: MKN-74, 24 h
HeLa = experiment: Antiproliferative activity against human HeLa cells assessed as reduction in cell viability measured after 24 hrs; type: functional, cell-based

Mitogen-activated protein kinase 3 (Homo sapiens), sequence (P27361 whole entry): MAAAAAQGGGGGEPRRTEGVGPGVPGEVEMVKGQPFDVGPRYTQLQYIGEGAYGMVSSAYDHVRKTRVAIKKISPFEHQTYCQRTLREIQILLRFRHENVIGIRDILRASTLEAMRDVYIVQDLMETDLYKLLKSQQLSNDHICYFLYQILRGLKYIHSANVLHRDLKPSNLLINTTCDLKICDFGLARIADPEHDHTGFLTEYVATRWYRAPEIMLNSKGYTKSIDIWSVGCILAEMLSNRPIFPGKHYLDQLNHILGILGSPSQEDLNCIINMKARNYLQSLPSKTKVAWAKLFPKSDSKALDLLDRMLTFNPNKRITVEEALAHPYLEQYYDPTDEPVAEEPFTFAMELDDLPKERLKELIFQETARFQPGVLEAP

Row | inhibition [1] [%] | inhibition [2] [%] | inhibition [3] [%] | IC50 (HL-60) [µM] | IC50 (MKN-74) [µM] | IC50 (HeLa) [µM] | SMILES
1 | 41.9 | 45.4 | 34.9 | 33.9 | 38.6 | > 50 | NC(=O)c1c(NC(=O)c2ccccc2Cl)sc2c1CCN(C(=S)Nc1cccnc1)C2
2 | 90.9 | 86.9 | 88.5 | 9.09 | 10.8 | 24.6 | NC(=O)c1c(NC(=O)c2ccccc2Cl)sc2c1CCN(C(=S)Nc1ccccc1Br)C2
3 | 60.5 | 68.5 | 43.3 | > 50 | > 50 | > 50 | CCCCCC(=O)Nc1sc2c(c1C(N)=O)CCN(C(=S)NCCCC)C2
4 | 71.3 | 60.4 | 65.7 | 18.5 | 22.7 | > 50 | NC(=O)c1c(NC(=O)c2cccc([N+](=O)[O-])c2)sc2c1CCN(C(=O)Nc1ccccc1Cl)C2
5 | 56.1 | 59.6 | 42.8 | > 50 | 41.8 | > 50 | COc1ccccc1NC(=S)N1CCc2c(sc(NC(=O)c3ccccc3I)c2C(N)=O)C1
6 | 39.6 | 33.2 | 40 | 14.8 | 10.8 | > 50 | NC(=O)c1c(NC(=O)c2ccc(C(F)(F)F)cc2)sc2c1CCN(Cc1ccc(Cl)cc1Cl)C2
7 | 31.6 | 29.3 | 45.2 | 18.4 | 13.5 | 46.1 | NC(=O)c1c(NC(=O)c2cccc([N+](=O)[O-])c2)sc2c1CCN(Cc1c(Cl)cccc1Cl)C2
8 | 64.7 | 65.2 | 54.9 | 45.2 | > 50 | > 50 | Cc1ccccc1C(=O)Nc1sc2c(c1C(N)=O)CCN(C(=S)Nc1ccccc1Br)C2
9 | 68.9 | 66.6 | 63.1 | 8.01 | 16.3 | 21.1 | NC(=O)c1c(NC(=O)c2ccccc2Cl)sc2c1CCN(Cc1ccc(Cl)cc1Cl)C2
10 | 79.4 | 66 | 54.2 | 16.3 | 13.8 | 49 | NC(=O)c1c(NC(=O)c2ccc(C(F)(F)F)cc2)sc2c1CCN(C(=S)Nc1cc(C(F)(F)F)cc(C(F)(F)F)c1)C2
11 | 66.2 | 63.1 | 65 | 11.4 | 31.5 | 46.1 | NC(=O)c1c(NC(=O)c2ccccc2Cl)sc2c1CCN(Cc1ccc([N+](=O)[O-])cc1)C2
12 | 77.2 | 81.6 | 86.5 | 23.5 | 19.6 | > 50 | NC(=O)c1c(NC(=O)c2ccccc2C(F)(F)F)sc2c1CCN(C(=S)Nc1ccccc1F)C2
13 | 74.4 | 79.7 | 48.6 | > 50 | > 50 | 47.4 | NC(=O)c1c(NC(=O)c2ccc[nH]2)sc2c1CCN(C(=S)Nc1cccnc1)C2
14 | 55.7 | 32.4 | 38 | 13.1 | 9.61 | 27.5 | NC(=O)c1c(NC(=O)c2ccccc2F)sc2c1CCN(Cc1ccc(Cl)cc1Cl)C2
15 | 65 | 62.4 | 54.9 | 32.7 | 49.6 | > 50 | NC(=O)c1c(NC(=O)c2ccccc2F)sc2c1CCN(C(=O)Nc1ccccc1Cl)C2
16 | 70.4 | 71.9 | 53.8 | 14.6 | 27.6 | 32.9 | Cc1ccc(C(=O)Nc2sc3c(c2C(N)=O)CCN(C(=O)Nc2ccccc2Cl)C3)cc1
17 | 60.9 | 64.7 | 40.5 | 34.4 | 25.8 | 24.9 | NC(=O)c1c(NC(=O)c2ccccc2Cl)sc2c1CCN(C(=S)Nc1ccccc1-c1ccccc1)C2
18 | 32.2 | 53.7 | 52.3 | 19.9 | 25.5 | > 50 | Cc1ccc(C(=O)Nc2sc3c(c2C(N)=O)CCN(Cc2ccc(Cl)cc2Cl)C3)cc1
19 | 89.2 | 88.4 | 89.9 | 12.5 | 16.3 | 45.4 | NC(=O)c1c(NC(=O)c2ccccc2Cl)sc2c1CCN(C(=O)Nc1ccccc1Cl)C2
20 | 65.1 | 60.8 | 46.7 | > 50 | > 50 | > 50 | Cc1ccccc1NC(=S)N1CCc2c(sc(NC(=O)c3ccccc3Br)c2C(N)=O)C1
